Source: ChEMBL document CHEMBL1201862, “PubChem BioAssay data set” (2004)
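Tested at 5 concentrations; 48 h exposure; 96-well plates; endpoints linearly interpolated, else capped at highest concentration. Abbreviation: GI50, concentration required for 50% inhibition of growth.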 Calls of active or inactive are those of the source. Cut-off read from the data, not from the text of the source: active = GI50 up to about 1.1 µM and inactive = higher.

Legend:
Assay in all cases: inhibition of tumour cell growth, NCI panel, 48 h
[1] = system: NCI-H23
[2] = system: PC-3
[3] = system: SK-MEL-5
[4] = system: NCI-H460
[5] = system: NCI-H522
[6] = system: COLO 205
[7] = system: MCF7
[8] = system: M14
[9] = system: SF-268
[10] = system: MDA-MB-231
[11] = system: EKVX
[12] = system: CCRF-CEM
[13] = system: HOP-62
[14] = system: SNB-19
[15] = system: HOP-92
[16] = system: OVCAR-4

SMILES	GI50 [1]	GI50 [2]	GI50 [3]	GI50 [4]	GI50 [5]	GI50 [6]	GI50 [7]	GI50 [8]	GI50 [9]	GI50 [10]	GI50 [11]	GI50 [12]	GI50 [13]	GI50 [14]	GI50 [15]	GI50 [16]
Cc1ccc(NC(=O)CC(=O)n2nc(C)c(/N=N/c3ccc(S(=O)(=O)CCOS(=O)(=O)O)cc3)c2C)cc1	> 100 µM (inactive)	> 100 µM (inactive)	> 100 µM (inactive)	> 100 µM (inactive)	> 100 µM (inactive)	> 100 µM (inactive)	> 100 µM (inactive)	> 100 µM (inactive)	> 100 µM (inactive)	> 100 µM (inactive)	> 100 µM (inactive)	> 100 µM (inactive)	> 100 µM (inactive)	> 100 µM (inactive)		
Nc1nc(NNc2ccc(Cl)c(Cl)c2)cc(=O)[nH]1	34 µM (inactive)	34 µM (inactive)	33.4 µM (inactive)	41.6 µM (inactive)		16.6 µM (inactive)	17.3 µM (inactive)	34.2 µM (inactive)	19.7 µM (inactive)	33.8 µM (inactive)	39.2 µM (inactive)	36.4 µM (inactive)	70.8 µM (inactive)	72.6 µM (inactive)	21.9 µM (inactive)	52 µM (inactive)
O=C(C#CP(=O)(O)c1ccccc1)c1ccccc1	> 100 µM (inactive)	> 100 µM (inactive)	> 100 µM (inactive)	> 100 µM (inactive)	> 100 µM (inactive)	> 100 µM (inactive)	> 100 µM (inactive)	> 100 µM (inactive)	> 100 µM (inactive)		> 100 µM (inactive)		> 100 µM (inactive)	> 100 µM (inactive)	> 100 µM (inactive)	> 100 µM (inactive)
COC(=O)c1ccc(C)cc1C1CN=NC12Cc1cc(C)c(C)cc1C2=O (configuration not stated)	40.6 µM (inactive)		14.9 µM (inactive)	37.7 µM (inactive)	27.7 µM (inactive)		38.7 µM (inactive)	35.4 µM (inactive)	36.6 µM (inactive)	27 µM (inactive)	24.3 µM (inactive)	31 µM (inactive)	> 100 µM (inactive)	42.4 µM (inactive)	34.2 µM (inactive)	> 100 µM (inactive)
Clc1ccc(/N=c2\oc3ccccc3cc2-c2nc3ccccc3[nH]2)c(Cl)c1	78.5 µM (inactive)	> 100 µM (inactive)			78.5 µM (inactive)			> 100 µM (inactive)	24.2 µM (inactive)		51.2 µM (inactive)	> 100 µM (inactive)	24.3 µM (inactive)	> 100 µM (inactive)	43.6 µM (inactive)	> 100 µM (inactive)
Cc1c(/C=N/NC(=S)Nc2ccccc2)c(=O)n(-c2ccccc2)n1C	> 100 µM (inactive)	> 100 µM (inactive)	> 100 µM (inactive)	> 100 µM (inactive)		> 100 µM (inactive)	> 100 µM (inactive)	> 100 µM (inactive)	> 100 µM (inactive)	> 100 µM (inactive)	> 100 µM (inactive)	48 µM (inactive)	> 100 µM (inactive)	> 100 µM (inactive)	> 100 µM (inactive)	> 100 µM (inactive)
Cc1cc(Cl)nc(NC(=O)CSc2ccc(Cl)cc2)n1	> 100 µM (inactive)	> 100 µM (inactive)	> 100 µM (inactive)	> 100 µM (inactive)	95.7 µM (inactive)			> 100 µM (inactive)	> 100 µM (inactive)	> 100 µM (inactive)	> 100 µM (inactive)	> 100 µM (inactive)	79.1 µM (inactive)	> 100 µM (inactive)	> 100 µM (inactive)	
Cc1sc2c(c1C)C(=O)c1cccn1-2		65.3 µM (inactive)	> 100 µM (inactive)	> 100 µM (inactive)	92 µM (inactive)	> 100 µM (inactive)	68.5 µM (inactive)	> 100 µM (inactive)	> 100 µM (inactive)	96.4 µM (inactive)	56.4 µM (inactive)	56.1 µM (inactive)	> 100 µM (inactive)	> 100 µM (inactive)		> 100 µM (inactive)
C/C(=N\NC(N)=S)c1ccc2c(c1)Sc1ccccc1O2	3.7 µM (inactive)	2.59 µM (inactive)	1.58 µM (inactive)	2.83 µM (inactive)		1.1 µM (active)		2.4 µM (inactive)	2.36 µM (inactive)	5.05 µM (inactive)	1.24 µM (inactive)	3.67 µM (inactive)	3.46 µM (inactive)	6.55 µM (inactive)	3.17 µM (inactive)	2.47 µM (inactive)
CC1=CC[C@H](C[C@H](C#CCCCC2OCCO2)O[Si](C(C)C)(C(C)C)C(C)C)C(=O)CC1	> 100 µM (inactive)	> 100 µM (inactive)	> 100 µM (inactive)	> 100 µM (inactive)		> 100 µM (inactive)	> 100 µM (inactive)	> 100 µM (inactive)	> 100 µM (inactive)	> 100 µM (inactive)	> 100 µM (inactive)	> 100 µM (inactive)	> 100 µM (inactive)	> 100 µM (inactive)	> 100 µM (inactive)	> 100 µM (inactive)
CCOC(=O)C(Cc1cn(C(C)=O)c2ccccc12)P(=O)(OCC)OCC (configuration not stated)	> 100 µM (inactive)	60.8 µM (inactive)	> 100 µM (inactive)	55.1 µM (inactive)	> 100 µM (inactive)	> 100 µM (inactive)		> 100 µM (inactive)		> 100 µM (inactive)			> 100 µM (inactive)	> 100 µM (inactive)	> 100 µM (inactive)	> 100 µM (inactive)
CC12CCC(C(=O)OC1=O)C2(C)C (configuration not stated)	1.67 µM (inactive)	> 100 µM (inactive)		> 100 µM (inactive)	> 100 µM (inactive)	> 100 µM (inactive)	> 100 µM (inactive)	> 100 µM (inactive)	> 100 µM (inactive)	> 100 µM (inactive)		> 100 µM (inactive)	> 100 µM (inactive)	> 100 µM (inactive)		> 100 µM (inactive)
CC(=O)NNC(=S)N/C=C1/C(=O)Oc2ccccc2C1=O	> 100 µM (inactive)	> 100 µM (inactive)	> 100 µM (inactive)	> 100 µM (inactive)	> 100 µM (inactive)	> 100 µM (inactive)	> 100 µM (inactive)	> 100 µM (inactive)	> 100 µM (inactive)	> 100 µM (inactive)		> 100 µM (inactive)	> 100 µM (inactive)	> 100 µM (inactive)		> 100 µM (inactive)
COC(=O)Cc1c(C2C(CC(=O)OC)c3ccccc3N2C2OC(CO)C(O)C(O)C2O)[nH]c2ccccc12 (configuration not stated)	> 100 µM (inactive)	> 100 µM (inactive)	> 100 µM (inactive)	> 100 µM (inactive)	> 100 µM (inactive)	> 100 µM (inactive)		> 100 µM (inactive)	> 100 µM (inactive)	> 100 µM (inactive)	> 100 µM (inactive)	> 100 µM (inactive)	> 100 µM (inactive)	> 100 µM (inactive)	> 100 µM (inactive)	> 100 µM (inactive)
O=c1[nH]c(=O)n(COCc2ccccc2)cc1Nc1ccc(Br)cc1	> 100 µM (inactive)	> 100 µM (inactive)	> 100 µM (inactive)	> 100 µM (inactive)		> 100 µM (inactive)	> 100 µM (inactive)	> 100 µM (inactive)	28.5 µM (inactive)		> 100 µM (inactive)	> 100 µM (inactive)	17.1 µM (inactive)	> 100 µM (inactive)	> 100 µM (inactive)	> 100 µM (inactive)
Nc1c(C(=O)c2ccccc2)[nH]c(NCc2ccccc2)c1C(=S)Nc1ccccc1	> 100 µM (inactive)		> 100 µM (inactive)	> 100 µM (inactive)	> 100 µM (inactive)	> 100 µM (inactive)	> 100 µM (inactive)	> 100 µM (inactive)	> 100 µM (inactive)	> 100 µM (inactive)	> 100 µM (inactive)	> 100 µM (inactive)	> 100 µM (inactive)	> 100 µM (inactive)	> 100 µM (inactive)	> 100 µM (inactive)
O=Cc1cc([N+](=O)[O-])no1	33.8 µM (inactive)	24.7 µM (inactive)	20 µM (inactive)	44.9 µM (inactive)		36 µM (inactive)	22 µM (inactive)	17.1 µM (inactive)		26.5 µM (inactive)		16.6 µM (inactive)	38.1 µM (inactive)	92.9 µM (inactive)	> 100 µM (inactive)	17.2 µM (inactive)
CC1=C(N2CC2)C(=O)C(CO)=C(N2CC2)C1=O	0.0169 µM (active)		0.0279 µM (active)	< 0.01 µM (active)	0.013 µM (active)		0.0106 µM (active)	0.0111 µM (active)	0.0129 µM (active)	0.173 µM (active)	0.254 µM (active)	< 0.01 µM (active)	0.0144 µM (active)	0.0927 µM (active)		0.103 µM (active)
O=c1[nH][nH]c(=O)n1Cc1ccccc1Cn1c(=O)[nH][nH]c1=O	> 100 µM (inactive)	> 100 µM (inactive)	> 100 µM (inactive)	> 100 µM (inactive)	> 100 µM (inactive)	> 100 µM (inactive)		> 100 µM (inactive)	> 100 µM (inactive)	> 100 µM (inactive)	> 100 µM (inactive)	> 100 µM (inactive)	> 100 µM (inactive)	> 100 µM (inactive)	> 100 µM (inactive)	
